Experimental data: patent publication US10131669B2, “Pyrazolopyrimidine compounds” (Pfizer Inc., priority 2014, dated 2018)
Counter-ions that a name gives are not always drawn. Like-named read-outs stand apart in the source and are kept apart here.

What was measured:
Type in all cases: biochemical
[1] = target: T1, Human PDE4C1 (Homo sapiens, UniProt Q08493); test: PDE4C1 Scintillation Proximity Assay (SPA), inhibition of enzyme activity; conditions: geometric mean of 2-7 determinations unless otherwise indicated (b: ≥8 determinations; c: single determination), 1 μM cAMP, 30 min at 25° C., read-out: Human PDE4C FL
T1 construct: His6 (N); FLAG (C); made in house; host or cells: insect cells (baculovirus, pFastBac)
Method in brief: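 Human recombinant FLAG/His-purified PDE4C1 from insect cells at 40 pM, with 1 μM cAMP (3H-cAMP tracer) in Tris pH 7.5, 1.3 mM MgCl2, 0.01% Brij, ~20% substrate turnover. Incubation 30 min at 25° C with a range of inhibitor concentrations. Stopped with yttrium silicate SPA beads and read by scintillation after 8 h settling.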

[2] = target: T2, Human PDE4B1 (Homo sapiens, UniProt Q07343, S133E/S654A/S659A/S661A); test: PDE4B1 Scintillation Proximity Assay (SPA), inhibition of enzyme activity
T2 construct: His6 (N); thrombin cleavage site (N); made in house; host or cells: insect cells (baculovirus, pFastBac)
Method in brief: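 His-tagged human PDE4B1 expressed in insect cells and purified by Ni-NTA and Source 15Q was assayed in 50 mM Tris pH 7.5, 1.3 mM MgCl2, 0.01% Brij. The substrate was 1 μM cAMP with ³H-cAMP tracer, at about 20% conversion, for 30 min at 25 °C. Yttrium silicate SPA beads stopped the reaction; counts were read after 8 h settling.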

[3] = target: T3, Human PDE4A3 (Homo sapiens, UniProt P27815); test: PDE4A3 Scintillation Proximity Assay (SPA), inhibition of enzyme activity; conditions: geometric mean of 2-7 determinations unless otherwise indicated (b: ≥8 determinations; c: single determination), 1 μM cAMP, 30 min at 25° C., read-out: Human PDE4A FL
T3 construct: His6 (N); FLAG (C); made in house; host or cells: insect cells (baculovirus, pFastBac)
Method in brief: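 Human PDE4A3 (aa 2–825, His6/FLAG-tagged, insect-cell expressed) at 80 pM hydrolyses 1 μM cAMP including 20 nM 3H-cAMP, ~20% conversion. Buffer is 50 mM Tris pH 7.5, 1.3 mM MgCl2, 0.01% Brij. Incubated 30 min at 25 °C with inhibitor range, stopped with yttrium silicate SPA beads, read after 8 h settling.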

[4] = target: T4, human PDE4D3 (Homo sapiens, UniProt Q08499); test: PDE4D3 Scintillation Proximity Assay (SPA), inhibition of enzyme activity
T4 construct: His6 (C); made in house; host or cells: insect cells (baculovirus, pFastBac)
Method in brief: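 Recombinant enzyme from insect cells, Ni-NTA and Q Sepharose purified, used at 10 pM in 50 mM Tris pH 7.5, 1.3 mM MgCl2, 0.01% Brij. Substrate 1 μM cAMP with 3H-cAMP tracer, ~20% conversion, inhibitor range, 30 min at 25°C. Stopped with yttrium silicate SPA beads and scintillation read.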

[5] = geometric mean of 2-7 determinations unless otherwise indicated (b: ≥8 determinations; c: single determination), 1 μM cAMP, 30 min at 25° C., read-out: Human PDE4B FL, IC50
[6] = geometric mean of 2-7 determinations unless otherwise indicated (b: ≥8 determinations; c: single determination), 1 μM cAMP, 30 min at 25° C., read-out: Human PDE4D FL, IC50

T4 sequence (Q08499 186-808): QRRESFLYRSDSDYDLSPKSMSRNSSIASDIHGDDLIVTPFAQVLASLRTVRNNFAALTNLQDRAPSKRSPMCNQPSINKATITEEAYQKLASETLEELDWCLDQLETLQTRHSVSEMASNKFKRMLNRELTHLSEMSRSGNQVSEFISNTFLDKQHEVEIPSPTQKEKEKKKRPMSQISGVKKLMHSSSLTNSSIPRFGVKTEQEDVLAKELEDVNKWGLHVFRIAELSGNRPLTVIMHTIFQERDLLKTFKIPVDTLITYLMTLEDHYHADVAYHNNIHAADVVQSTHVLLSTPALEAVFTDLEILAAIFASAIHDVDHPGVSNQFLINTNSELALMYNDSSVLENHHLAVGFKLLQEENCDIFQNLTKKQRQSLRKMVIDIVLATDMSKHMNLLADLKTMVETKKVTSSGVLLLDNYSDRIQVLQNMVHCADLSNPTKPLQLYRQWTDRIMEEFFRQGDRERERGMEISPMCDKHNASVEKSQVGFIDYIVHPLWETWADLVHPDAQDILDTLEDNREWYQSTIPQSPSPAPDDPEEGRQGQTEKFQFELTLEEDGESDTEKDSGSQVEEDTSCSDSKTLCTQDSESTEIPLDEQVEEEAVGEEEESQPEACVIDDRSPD
T1 sequence (Q08493 2-712): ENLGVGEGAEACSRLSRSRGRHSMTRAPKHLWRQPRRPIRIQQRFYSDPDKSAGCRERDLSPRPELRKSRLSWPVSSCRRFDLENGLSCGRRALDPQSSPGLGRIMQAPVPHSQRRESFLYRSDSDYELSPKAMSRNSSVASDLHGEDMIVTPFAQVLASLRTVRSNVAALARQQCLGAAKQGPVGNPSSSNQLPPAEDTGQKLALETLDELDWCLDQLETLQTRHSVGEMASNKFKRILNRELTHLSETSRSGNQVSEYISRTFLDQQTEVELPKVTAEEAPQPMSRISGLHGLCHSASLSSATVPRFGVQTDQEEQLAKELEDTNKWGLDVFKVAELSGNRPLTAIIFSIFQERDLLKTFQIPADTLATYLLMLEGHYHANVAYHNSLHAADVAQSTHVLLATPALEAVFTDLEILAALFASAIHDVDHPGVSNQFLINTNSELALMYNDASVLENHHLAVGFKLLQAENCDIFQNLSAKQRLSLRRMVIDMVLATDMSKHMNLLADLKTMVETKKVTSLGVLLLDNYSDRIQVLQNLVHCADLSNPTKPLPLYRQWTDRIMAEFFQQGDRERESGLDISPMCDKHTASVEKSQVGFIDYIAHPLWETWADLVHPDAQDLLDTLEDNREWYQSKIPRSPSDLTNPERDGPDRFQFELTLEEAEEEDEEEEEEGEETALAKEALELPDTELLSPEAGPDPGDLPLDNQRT
T2 sequence (Q07343 122-736 S133E/S654A/S659A/S661A): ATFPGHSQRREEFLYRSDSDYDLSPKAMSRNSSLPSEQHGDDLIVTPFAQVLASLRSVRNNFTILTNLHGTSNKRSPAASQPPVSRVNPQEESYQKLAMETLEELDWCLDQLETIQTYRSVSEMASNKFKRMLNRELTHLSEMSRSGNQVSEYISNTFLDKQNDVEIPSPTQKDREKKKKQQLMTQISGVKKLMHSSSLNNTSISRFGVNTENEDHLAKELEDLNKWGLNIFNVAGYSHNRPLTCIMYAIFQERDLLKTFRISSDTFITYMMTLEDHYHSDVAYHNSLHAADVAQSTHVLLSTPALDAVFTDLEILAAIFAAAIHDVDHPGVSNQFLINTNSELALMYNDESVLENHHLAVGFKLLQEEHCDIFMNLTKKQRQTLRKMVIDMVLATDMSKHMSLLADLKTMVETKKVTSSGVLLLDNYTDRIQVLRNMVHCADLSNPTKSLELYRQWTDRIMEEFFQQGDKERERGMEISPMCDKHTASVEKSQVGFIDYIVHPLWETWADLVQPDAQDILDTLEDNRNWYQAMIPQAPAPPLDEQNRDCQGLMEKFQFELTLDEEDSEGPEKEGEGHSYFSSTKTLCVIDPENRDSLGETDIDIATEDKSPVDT
T3 sequence (P27815 2-825 isoform P27815-6): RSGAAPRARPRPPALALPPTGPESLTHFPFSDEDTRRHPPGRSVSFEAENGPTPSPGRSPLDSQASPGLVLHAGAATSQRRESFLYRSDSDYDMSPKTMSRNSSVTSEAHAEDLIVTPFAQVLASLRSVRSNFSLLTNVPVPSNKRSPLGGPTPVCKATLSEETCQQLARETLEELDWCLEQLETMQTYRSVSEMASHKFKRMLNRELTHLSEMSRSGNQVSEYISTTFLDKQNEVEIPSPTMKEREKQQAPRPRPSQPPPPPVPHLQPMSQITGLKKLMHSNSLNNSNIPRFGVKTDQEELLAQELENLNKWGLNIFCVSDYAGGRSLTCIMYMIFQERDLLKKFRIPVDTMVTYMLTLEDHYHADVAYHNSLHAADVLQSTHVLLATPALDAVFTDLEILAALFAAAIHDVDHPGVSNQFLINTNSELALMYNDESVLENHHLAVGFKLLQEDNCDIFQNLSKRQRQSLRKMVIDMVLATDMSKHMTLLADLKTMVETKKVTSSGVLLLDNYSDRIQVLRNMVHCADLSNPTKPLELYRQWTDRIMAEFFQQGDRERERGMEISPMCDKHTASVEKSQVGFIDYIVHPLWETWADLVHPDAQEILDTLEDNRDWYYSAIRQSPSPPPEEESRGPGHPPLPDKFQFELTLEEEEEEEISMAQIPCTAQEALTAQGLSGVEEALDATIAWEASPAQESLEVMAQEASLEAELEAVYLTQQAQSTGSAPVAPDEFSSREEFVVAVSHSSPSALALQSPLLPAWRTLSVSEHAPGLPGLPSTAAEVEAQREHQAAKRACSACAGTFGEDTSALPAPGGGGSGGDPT

Row | Compound | IC50 [1] | IC50 [2, 5] | IC50 [3] | IC50 [4, 6] | IC50 [2] | IC50 [4]
1 | CCNC(=O)c1nn2cccnc2c1-c1cc(F)c(Cl)cc1C [Example 17, 3-(4-chloro-5-fluoro-2-methylphenyl)-N-ethylpyrazolo[1,5-a]pyrimidine-2-carboxamide] | 79.8 nM | 21 nM | 8.46 nM | 967 nM |  | 
2 | Cc1cc(Cl)ccc1-c1c(C(=O)N2CCC2)nn2cccnc12 [Example 21, azetidin-1-yl[3-(4-chloro-2-methylphenyl)pyrazolo[1,5-a]pyrimidin-2-yl]methanone] | 56.5 nM | 44.6 nM | 16.6 nM | 4830 nM |  | 
3 | O=C(NC1CC1)c1nn2cccnc2c1-c1ccc2ncoc2c1 [Example 43, 3-(1,3-benzoxazol-6-yl)-N-cyclopropylpyrazolo[1,5-a]pyrimidine-2-carboxamide] | 178 nM | 221 nM | 146 nM | > 14400 nM |  | 
4 | O=C(NC1CC1)c1nn2cc(F)cnc2c1-c1cc(F)c(Cl)cc1F [Example 72, 3-(4-chloro-2,5-difluorophenyl)-N-cyclopropyl-6-fluoropyrazolo[1,5-a]pyrimidine-2-carboxamide] | 5.18 nM | 3.02 nM | 0.77 nM | 43 nM |  | 
5 | Cc1cc(Cl)c(F)cc1-c1c(C(=O)NC2CCC2)nn2cccnc12 [Example 24, 3-(4-chloro-5-fluoro-2-methylphenyl)-N-cyclobutylpyrazolo[1,5-a]pyrimidine-2-carboxamide] | 44 nM | 35.4 nM | 8.53 nM | 606 nM |  | 
6 | O=C(NC1CC1)c1nn2cccnc2c1-c1cc(F)c(Cl)cc1F [Example 47, 3-(4-chloro-2,5-difluorophenyl)-N-cyclopropylpyrazolo[1,5-a]pyrimidine-2-carboxamide] | 13.9 nM | 24.4 nM | 4.69 nM | 819 nM |  | 
7 | Cc1ccc(-c2c(C(=O)NC3CC3)nn3cc(F)cnc23)cc1F [Example 63, N-cyclopropyl-6-fluoro-3-(3-fluoro-4-methylphenyl)pyrazolo[1,5-a]pyrimidine-2-carboxamide] | 9.5 nM | 13.2 nM | 4.02 nM | 459 nM |  | 
8 | O=C(NC1CC1)c1nn2cc(F)cnc2c1-c1ccnc(OC(F)F)c1 [Example 56, N-cyclopropyl-3-[2-(difluoromethoxy)pyridin-4-yl]-6-fluoropyrazolo[1,5-a]pyrimidine-2-carboxamide] | 19.4 nM | 22.3 nM | 3.92 nM | 78.4 nM |  | 
9 | Cc1cc(Cl)c(F)cc1-c1c(C(=O)NC(C)C)nn2cccnc12 [Example 54, 3-(4-chloro-5-fluoro-2-methylphenyl)-N-(propan-2-yl)pyrazolo[1,5-a]pyrimidine-2-carboxamide] | 59 nM | 24.5 nM | 12.9 nM | 469 nM |  | 
10 | Cc1cc(Cl)c(F)cc1-c1c(C(=O)N2CCC2)nn2cccnc12 [Example 61, azetidin-1-yl[3-(4-chloro-5-fluoro-2-methylphenyl)pyrazolo[1,5-a]pyrimidin-2-yl]methanone] | 20 nM | 8 nM | 2 nM | 98 nM |  | 
11 | Cc1ccc(-c2c(C(=O)NC3CC3)nn3cccnc23)cc1F [Example 70, N-cyclopropyl-3-(3-fluoro-4-methylphenyl)pyrazolo[1,5-a]pyrimidine-2-carboxamide] | 17 nM | 23.6 nM | 8.09 nM | 680 nM |  | 
12 | O=C(NC1(C(F)(F)F)CC1)c1nn2cccnc2c1-c1ccc(Cl)cc1 [Example 36, 3-(4-chlorophenyl)-N-[1-(trifluoromethyl)cyclopropyl]pyrazolo[1,5-a]pyrimidine-2-carboxamide, hydrochloride salt] | 452 nM | 452 nM | 67.2 nM | > 25200 nM |  | 
13 | O=C(c1nn2cc(F)cnc2c1-c1ccc(Cl)cc1)N1CCC1 [Example 9, Azetidin-1-yl[3-(4-chlorophenyl)-6-fluoropyrazolo[1,5-a]pyrimidin-2-yl]methanone, Formate Salt] | 55.3 nM |  | 16.7 nM |  | 34.4 nM | 3710 nM
14 | O=C(NC12CC(C1)C2)c1nn2cccnc2c1-c1ccc(Cl)cc1 [Example 27, N-(bicyclo[1.1.1]pent-1-yl)-3-(4-chlorophenyl)pyrazolo[1,5-a]pyrimidine-2-carboxamide] | 217 nM | 124 nM | 55.8 nM | 6200 nM |  | 
